According to patent publication US5225607A, “Insecticidal ethers” (Imperial Chemical Industries PLC, priority 1985, dated 1993):

Tests used:
Assay type in all cases: in vivo
Blattella germanica = assay: Insecticidal test, Blattella germanica (cockroach nymphs), residual; conditions: 72 h, plastic pot, 3 days, read-out: grading of mortality, BG
Method: (§1) The activity of the Product was determined using a variety of insect and acarine pests. The Product was used in the form of liquid preparations containing 500, 250 or 100 parts per million (ppm) by weight of the Product. The preparations were made by dissolving the Product in acetone and diluting the solutions with water containing 0.01% by weight of a wetting agent sold under the trade name "LISSAPOL" NX until the liquid preparations contained the required concentratio of the Product. "Lissapol" is a Registered Trade Mark.
(§2) The test procedure adopted with regard to each pest was basically the same and comprised supporting a number of the pests on a medium which was usually a host plant or a foodstuff on which the pests feed, and treating either or both the pests and the medium with the preparations. The mortality of the pests was then assessed at periods usually varying from one to three days after the treatment.
(§3) The results of the tests are given in Table IV for each of the Products, at the rate in parts per million given in the second column as a grading of mortality designated as A, B or C wherein A indicates 80-100% mortality or knockdown (70-100% in the case of Spodoptera exigua), B indicates 50-79% mortality or knockdown (50-69% in the case of Spodoptera exigua) and C indicates less than 50% mortality or knockdown.
(§4) In Table IV the pest organism used is designated by a letter code and the pest species, the support medium or food, and the type and duration of test is given in Table III.

Myzus persicae = assay: Insecticidal test, Myzus persicae (aphids), contact; conditions: 72 h, Chinese Cabbage leaf, 3 days, read-out: grading of mortality, MP
Method: as §1, §2, §3, §4

Heliothis virescens = assay: whole plant or invertebrate; conditions: in Gossypium hirsutum, 72 h, read-out: grading of mortality, HV
Method: as §1, §2, §3, §4

Tetranychus urticae = assay: Insecticidal/acaricidal test, Tetranychus urticae (spider mites - adult), contact; conditions: 72 h, French bean leaf, 3 days, read-out: grading of mortality, TU
Method: as §1, §2, §3, §4

Nilaparvata lugens = assay: Insecticidal test, Nilaparvata lugens (brown planthopper), contact; conditions: 72 h, Cabbage leaf, 3 days, read-out: grading of mortality, NL
Method: as §1, §2, §3, §4

Musca domestica [1] = assay: Knockdown test, Musca domestica (houseflies - adults); conditions: cotton wool/sugar, 4 hours, read-out: grading of knockdown, MD/KD
Method: as §1, §2
In the case of the species Musca domestica (housefly), additional tests to determine the knockdown effect of the compounds were performed.
as §3, §4

Diabrotica balteata = assay: Insecticidal test, Diabrotica balteata (rootworm larvae), residual; conditions: 72 h, filter paper/maize seed, 3 days, read-out: grading of mortality, DB
Method: as §1, §2, §3, §4

Musca domestica [2] = assay: Insecticidal test, Musca domestica (houseflies - adults), contact; conditions: 24 h, cotton wool/sugar, 1 day, read-out: grading of mortality, MD
Method: as §1, §2, §3, §4

SMILES | mortality at 500 ppm (Blattella germanica) [%] | mortality at 500 ppm (Myzus persicae) [%] | mortality at 500 ppm (Heliothis virescens) [%] | mortality at 500 ppm (Tetranychus urticae) [%] | mortality at 500 ppm (Nilaparvata lugens) [%] | pest or weed control at 500 ppm (Musca domestica [1]) [%] | mortality at 500 ppm (Diabrotica balteata) [%] | mortality at 500 ppm (Musca domestica [2]) [%] | other results
CCOc1ccc(C(COCc2c(F)c(F)c(C)c(F)c2F)C(F)(F)F)cc1 (centres unmarked) [Compound 2, 1,1,1-Trifluoro-2-(4-ethoxyphenyl)-3-(4-methyl-2,3,5,6-tetrafluorobenzyloxy)propane] | 80 to 100 | 50 to 79 | < 50 | < 50 | 80 to 100 | < 50 | 80 to 100 | 50 to 79 | –
FC(F)(F)Oc1ccc(C(Cl)(COCc2cccc(Oc3ccccc3)c2)C(F)(F)F)cc1 (centres unmarked) [Compound 59, 1,1,1-Trifluoro-2-chloro-2-(4-trifluoromethoxyphenyl)-3-(3-phenoxybenzyloxy)propane] | – | – | – | – | – | – | – | – | mortality at 100 ppm (Blattella germanica; 100 ppm): 80 to 100%; mortality at 100 ppm (Myzus persicae; 100 ppm): < 50%; mortality at 100 ppm (Heliothis virescens): 80 to 100%; mortality at 100 ppm (Tetranychus urticae; 100 ppm): 80 to 100%; mortality at 100 ppm (Nilaparvata lugens; 100 ppm): 80 to 100%; pest or weed control at 100 ppm (Musca domestica [1]; 100 ppm): 80 to 100%; mortality at 100 ppm (Diabrotica balteata; 100 ppm): 80 to 100%; mortality at 100 ppm (Musca domestica [2]; 100 ppm): 80 to 100%
OC(COCc1ccc(F)c(Oc2ccccc2)c1)(c1ccc2c(c1)CCC2)C(F)(F)F (centres unmarked) [Compound 124, 1,1,1-Trifluoro-2-(5-indanyl)-3-(3-phenoxy-4-fluorobenzyloxy)propan-2-ol] | < 50 | < 50 | < 50 | 80 to 100 | < 50 | < 50 | < 50 | < 50 | –
Fc1ccc(COCC(c2ccc3c(c2)CCC3)C(F)(F)F)cc1Oc1ccccc1 (centres unmarked) [Compound 19, 1,1,1-Trifluoro-2-(5-indanyl)-3-(3-phenoxy-4-fluorobenzyloxy)propane] | – | – | – | – | – | – | – | – | mortality at 250 ppm (Blattella germanica; 250 ppm): 80 to 100%; mortality at 250 ppm (Myzus persicae; 250 ppm): 80 to 100%; mortality at 250 ppm (Heliothis virescens): 80 to 100%; mortality at 250 ppm (Tetranychus urticae; 250 ppm): < 50%; mortality at 250 ppm (Nilaparvata lugens; 250 ppm): 80 to 100%; pest or weed control at 250 ppm (Musca domestica [1]; 250 ppm): 80 to 100%; mortality at 250 ppm (Diabrotica balteata; 250 ppm): 80 to 100%; mortality at 250 ppm (Musca domestica [2]; 250 ppm): 80 to 100%
CCOc1ccc(C(O)(COCc2cccc(-c3ccccc3)c2C)C(F)(F)F)cc1 (centres unmarked) [Compound 142, 1,1,1-Trifluoro-2-(4-ethoxyphenyl)-3-(2-methyl-3-phenylbenzyloxy)propan-2-ol] | < 50 | < 50 | 80 to 100 | 80 to 100 | < 50 | < 50 | < 50 | < 50 | –
FC(F)(F)Oc1ccc(C(F)(COCc2cccc(Oc3ccccc3)c2)C(F)(F)F)cc1 (centres unmarked) [Compound 82, 1,1,1,2-Tetrafluoro-2-(4-trifluoromethoxyphenyl)-3-(3-phenoxybenzyloxy)propane] | 80 to 100 | 80 to 100 | 80 to 100 | < 50 | < 50 | 80 to 100 | 80 to 100 | 80 to 100 | –
Fc1ccc(COCC(c2ccc(Cl)cc2)C(F)(F)F)cc1Oc1ccccc1 (centres unmarked) [Compound 15] | 80 to 100 | 80 to 100 | – | 80 to 100 | 80 to 100 | 80 to 100 | 80 to 100 | 80 to 100 | –
CCOc1ccc(C(Cl)(COCc2ccc(F)c(Oc3ccc(Br)cc3)c2)C(F)(F)F)cc1 (centres unmarked) [Compound 43, 1,1,1-Trifluoro-2-chloro-2-(4-ethoxyphenyl)-3-(3-(4-bromophenoxy)-4-fluorobenzyloxy)propane] | 50 to 79 | 80 to 100 | – | 50 to 79 | 80 to 100 | 80 to 100 | < 50 | 80 to 100 | –
